Measurements as given in paper PMC13347698 (Analytical Chemistry, 2026).
Values joined by “and” are separate entries in the source; they are usually repeats but may differ in a detail not shown here. Equal entries are not always repeated.

Columns and labels:
[1] = molecular target: T1, native SARS-CoV-2 3CL^pro (Severe acute respiratory syndrome coronavirus 2, UniProt P0DTD1); assay: biochemical; assay type: biochemical
[2] = molecular target: wild-type 3CL^pro (Severe acute respiratory syndrome coronavirus 2, UniProt P0DTD1); assay: biochemical; assay type: binding, SARS-CoV-2; settings: K D (wt)
[3] = system: SARS-CoV-2 3CL^pro; settings: cited from earlier work
[4] = molecular target: T1, native SARS-CoV-2 3CL^pro; assay type: biochemical
[5] = system: SARS-CoV 3CL^pro; settings: cited from earlier work

Compound	Ki [1]	Kd [2]	IC50 [3]	binding kinetics (fast or slow-binding) [4]	covalent or noncovalent inhibition [4]	reduction of reaction rate vi with respect to v0 [4]	reduction of thermal power minimum with respect to the noninhibited reaction [4]	tight or nontight binding [4]	inhibition mode [1]	α parameter [1]	IC50 [5]
O=C(Nc1ccc(N(Cc2ccsc2)C(=O)Cn2nnc3ccccc32)cc1)C1CC1 [ML300]	6.2 ± 0.4 µM	7.5 µM and 3.6 µM	low micromolar range	–	–	–	–	–	–	–	–
CC(C)(C)c1ccc(N(C(=O)c2c[nH]cn2)[C@@H](C(=O)NC2CCCCC2)c2cccnc2)cc1 [X77]	–	–	–	fast	noncovalent	ca. 70%	ca. 40%	nontight	predominantly competitive	16 ± 3	3.4 µM
